In patent publication US8710045B2, “Agents for preventing and treating disorders involving modulation of the ryanodine receptors” (The Trustees of Columbia University in the City of New York, priority 2004, dated 2014):

How the values were obtained:
Wild-type mice = test: Chronic heart failure after myocardial infarction (LAD ligation) in wild-type mice; assay type: in vivo, mouse; conditions: plasma concentration 200 nM, vs placebo
Protocol: Wild-type mice are subjected to permanent ligation of the left anterior descending coronary artery resulting in myocardial infarction. Seven days following myocardial infartion, mice are treated with S36 (plasma concentration 200 nM) or placebo.

[1] = Plasma creatine kinase (CPK) activity in chronically exercised mice; assay type: in vivo, mouse
Protocol: (§1) Calpain and Creatine Kinase Assays: Tissue calpain activities were measured using a calpain activity assay kit (Calbiochem, San Diego, Calif.) (FIG. 42B). This assay is based on the degradation of the fluorescent peptide substrate Suc-LLVY-AMC (Calbiochem). Muscle homogenates were diluted to a final concentration of 600 μg/ml and the calpain activity in the homogenate was determined as per manufactures instructions. Plasma creatine kinase (CK) activity was assayed using the regent kit from Pointe Scientific, Inc. (Canton, Mich.) (FIG. 42A). Plasma samples (duplicates, 5 μl each) were added to 200 μl of CK reagent and the change in absorbance at 340 nm was recorded over 4 minutes using a plate reader. The average absorbance change per minute was used to determine the CPK levels as per manufacturer's instructions.
(§2) Reduced calpain activation in muscle tissue and reduced muscle tissue damage due to calstabin1 rebinding: One possible mechanism by which calcium released by leaky RyR1 channels impairs exercise performance is the activation of a member of the calpain family of Ca^2+-dependent neutral proteases, which are known to be responsible for muscle damage in a number of pathophysiological states. […] Calpain activity in muscle homogenates was assessed by means of the degradation of the synthetic calpain substrate Suc-LLVY-AMC, which fluoresces upon cleavage by calpain.

calpain = test: Calpain activity assay in EDL homogenates of chronically exercised mice; assay type: in vivo, mouse
Protocol: as §1, §2

C57BL/6J mice = test: Morris water maze spatial learning in exercised mice; assay type: in vivo, mouse; conditions: end of 21-day testing period, p approximately 0.2, n=8
Protocol: 16 wild type C57BL/6J 3-month-old mice, pairwise-matched for sex, age, and body weight, were randomized to either S 107 treatment (10 mg/ml; 0.25 μl/hr subcutaneous osmotic pump) or “vehicle” (25% DMSO in dH2O) treatment groups.
Mice were sacrificed after 21 days for performing biochemistry, calcium imaging and ex vivo function studies.
The layout of the water maze system consists of a circular water tank divided into four quadrants (labeled 1 thru 4 in FIG. 58, with four hidden platforms (labeled 5 to 8 in FIG. 58). The following protocol was followed: Day 1: mice trained to find “hidden” platform with visible marker on platform from random starting location. On days 2-4, the visible cue was removed, and mice were repeatedly challenged to find hidden platform at target 5 in quadrant 1. The time taken for each mouse to reach the target, i.e. the “latency,” was recorded. On day 5, the previous day's protocol was repeated, then the hidden platform was removed, and each mouse's movements recorded to quantify time in various target regions. The protocol was repeated in week 2.
The platform was then removed, and the swimming pattern of the mice was assessed at the end of the 21-day testing period.

RyR1 = target: T1, RyR1 (Mus musculus, UniProt E9PZQ0); test: RyR1 single channel recording in planar lipid bilayers from exercised mice; assay type: in vivo; conditions: 90 nM [Ca2+]cis
T1 construct: RyR1 was immunoprecipitated from soleus muscle homogenates of mice following 21 days of exercise; from tissue; host or cells: mouse hind-limb skeletal muscle (soleus, EDL; SR microsomes for bilayer recording)
T1 sequence (E9PZQ0 whole entry): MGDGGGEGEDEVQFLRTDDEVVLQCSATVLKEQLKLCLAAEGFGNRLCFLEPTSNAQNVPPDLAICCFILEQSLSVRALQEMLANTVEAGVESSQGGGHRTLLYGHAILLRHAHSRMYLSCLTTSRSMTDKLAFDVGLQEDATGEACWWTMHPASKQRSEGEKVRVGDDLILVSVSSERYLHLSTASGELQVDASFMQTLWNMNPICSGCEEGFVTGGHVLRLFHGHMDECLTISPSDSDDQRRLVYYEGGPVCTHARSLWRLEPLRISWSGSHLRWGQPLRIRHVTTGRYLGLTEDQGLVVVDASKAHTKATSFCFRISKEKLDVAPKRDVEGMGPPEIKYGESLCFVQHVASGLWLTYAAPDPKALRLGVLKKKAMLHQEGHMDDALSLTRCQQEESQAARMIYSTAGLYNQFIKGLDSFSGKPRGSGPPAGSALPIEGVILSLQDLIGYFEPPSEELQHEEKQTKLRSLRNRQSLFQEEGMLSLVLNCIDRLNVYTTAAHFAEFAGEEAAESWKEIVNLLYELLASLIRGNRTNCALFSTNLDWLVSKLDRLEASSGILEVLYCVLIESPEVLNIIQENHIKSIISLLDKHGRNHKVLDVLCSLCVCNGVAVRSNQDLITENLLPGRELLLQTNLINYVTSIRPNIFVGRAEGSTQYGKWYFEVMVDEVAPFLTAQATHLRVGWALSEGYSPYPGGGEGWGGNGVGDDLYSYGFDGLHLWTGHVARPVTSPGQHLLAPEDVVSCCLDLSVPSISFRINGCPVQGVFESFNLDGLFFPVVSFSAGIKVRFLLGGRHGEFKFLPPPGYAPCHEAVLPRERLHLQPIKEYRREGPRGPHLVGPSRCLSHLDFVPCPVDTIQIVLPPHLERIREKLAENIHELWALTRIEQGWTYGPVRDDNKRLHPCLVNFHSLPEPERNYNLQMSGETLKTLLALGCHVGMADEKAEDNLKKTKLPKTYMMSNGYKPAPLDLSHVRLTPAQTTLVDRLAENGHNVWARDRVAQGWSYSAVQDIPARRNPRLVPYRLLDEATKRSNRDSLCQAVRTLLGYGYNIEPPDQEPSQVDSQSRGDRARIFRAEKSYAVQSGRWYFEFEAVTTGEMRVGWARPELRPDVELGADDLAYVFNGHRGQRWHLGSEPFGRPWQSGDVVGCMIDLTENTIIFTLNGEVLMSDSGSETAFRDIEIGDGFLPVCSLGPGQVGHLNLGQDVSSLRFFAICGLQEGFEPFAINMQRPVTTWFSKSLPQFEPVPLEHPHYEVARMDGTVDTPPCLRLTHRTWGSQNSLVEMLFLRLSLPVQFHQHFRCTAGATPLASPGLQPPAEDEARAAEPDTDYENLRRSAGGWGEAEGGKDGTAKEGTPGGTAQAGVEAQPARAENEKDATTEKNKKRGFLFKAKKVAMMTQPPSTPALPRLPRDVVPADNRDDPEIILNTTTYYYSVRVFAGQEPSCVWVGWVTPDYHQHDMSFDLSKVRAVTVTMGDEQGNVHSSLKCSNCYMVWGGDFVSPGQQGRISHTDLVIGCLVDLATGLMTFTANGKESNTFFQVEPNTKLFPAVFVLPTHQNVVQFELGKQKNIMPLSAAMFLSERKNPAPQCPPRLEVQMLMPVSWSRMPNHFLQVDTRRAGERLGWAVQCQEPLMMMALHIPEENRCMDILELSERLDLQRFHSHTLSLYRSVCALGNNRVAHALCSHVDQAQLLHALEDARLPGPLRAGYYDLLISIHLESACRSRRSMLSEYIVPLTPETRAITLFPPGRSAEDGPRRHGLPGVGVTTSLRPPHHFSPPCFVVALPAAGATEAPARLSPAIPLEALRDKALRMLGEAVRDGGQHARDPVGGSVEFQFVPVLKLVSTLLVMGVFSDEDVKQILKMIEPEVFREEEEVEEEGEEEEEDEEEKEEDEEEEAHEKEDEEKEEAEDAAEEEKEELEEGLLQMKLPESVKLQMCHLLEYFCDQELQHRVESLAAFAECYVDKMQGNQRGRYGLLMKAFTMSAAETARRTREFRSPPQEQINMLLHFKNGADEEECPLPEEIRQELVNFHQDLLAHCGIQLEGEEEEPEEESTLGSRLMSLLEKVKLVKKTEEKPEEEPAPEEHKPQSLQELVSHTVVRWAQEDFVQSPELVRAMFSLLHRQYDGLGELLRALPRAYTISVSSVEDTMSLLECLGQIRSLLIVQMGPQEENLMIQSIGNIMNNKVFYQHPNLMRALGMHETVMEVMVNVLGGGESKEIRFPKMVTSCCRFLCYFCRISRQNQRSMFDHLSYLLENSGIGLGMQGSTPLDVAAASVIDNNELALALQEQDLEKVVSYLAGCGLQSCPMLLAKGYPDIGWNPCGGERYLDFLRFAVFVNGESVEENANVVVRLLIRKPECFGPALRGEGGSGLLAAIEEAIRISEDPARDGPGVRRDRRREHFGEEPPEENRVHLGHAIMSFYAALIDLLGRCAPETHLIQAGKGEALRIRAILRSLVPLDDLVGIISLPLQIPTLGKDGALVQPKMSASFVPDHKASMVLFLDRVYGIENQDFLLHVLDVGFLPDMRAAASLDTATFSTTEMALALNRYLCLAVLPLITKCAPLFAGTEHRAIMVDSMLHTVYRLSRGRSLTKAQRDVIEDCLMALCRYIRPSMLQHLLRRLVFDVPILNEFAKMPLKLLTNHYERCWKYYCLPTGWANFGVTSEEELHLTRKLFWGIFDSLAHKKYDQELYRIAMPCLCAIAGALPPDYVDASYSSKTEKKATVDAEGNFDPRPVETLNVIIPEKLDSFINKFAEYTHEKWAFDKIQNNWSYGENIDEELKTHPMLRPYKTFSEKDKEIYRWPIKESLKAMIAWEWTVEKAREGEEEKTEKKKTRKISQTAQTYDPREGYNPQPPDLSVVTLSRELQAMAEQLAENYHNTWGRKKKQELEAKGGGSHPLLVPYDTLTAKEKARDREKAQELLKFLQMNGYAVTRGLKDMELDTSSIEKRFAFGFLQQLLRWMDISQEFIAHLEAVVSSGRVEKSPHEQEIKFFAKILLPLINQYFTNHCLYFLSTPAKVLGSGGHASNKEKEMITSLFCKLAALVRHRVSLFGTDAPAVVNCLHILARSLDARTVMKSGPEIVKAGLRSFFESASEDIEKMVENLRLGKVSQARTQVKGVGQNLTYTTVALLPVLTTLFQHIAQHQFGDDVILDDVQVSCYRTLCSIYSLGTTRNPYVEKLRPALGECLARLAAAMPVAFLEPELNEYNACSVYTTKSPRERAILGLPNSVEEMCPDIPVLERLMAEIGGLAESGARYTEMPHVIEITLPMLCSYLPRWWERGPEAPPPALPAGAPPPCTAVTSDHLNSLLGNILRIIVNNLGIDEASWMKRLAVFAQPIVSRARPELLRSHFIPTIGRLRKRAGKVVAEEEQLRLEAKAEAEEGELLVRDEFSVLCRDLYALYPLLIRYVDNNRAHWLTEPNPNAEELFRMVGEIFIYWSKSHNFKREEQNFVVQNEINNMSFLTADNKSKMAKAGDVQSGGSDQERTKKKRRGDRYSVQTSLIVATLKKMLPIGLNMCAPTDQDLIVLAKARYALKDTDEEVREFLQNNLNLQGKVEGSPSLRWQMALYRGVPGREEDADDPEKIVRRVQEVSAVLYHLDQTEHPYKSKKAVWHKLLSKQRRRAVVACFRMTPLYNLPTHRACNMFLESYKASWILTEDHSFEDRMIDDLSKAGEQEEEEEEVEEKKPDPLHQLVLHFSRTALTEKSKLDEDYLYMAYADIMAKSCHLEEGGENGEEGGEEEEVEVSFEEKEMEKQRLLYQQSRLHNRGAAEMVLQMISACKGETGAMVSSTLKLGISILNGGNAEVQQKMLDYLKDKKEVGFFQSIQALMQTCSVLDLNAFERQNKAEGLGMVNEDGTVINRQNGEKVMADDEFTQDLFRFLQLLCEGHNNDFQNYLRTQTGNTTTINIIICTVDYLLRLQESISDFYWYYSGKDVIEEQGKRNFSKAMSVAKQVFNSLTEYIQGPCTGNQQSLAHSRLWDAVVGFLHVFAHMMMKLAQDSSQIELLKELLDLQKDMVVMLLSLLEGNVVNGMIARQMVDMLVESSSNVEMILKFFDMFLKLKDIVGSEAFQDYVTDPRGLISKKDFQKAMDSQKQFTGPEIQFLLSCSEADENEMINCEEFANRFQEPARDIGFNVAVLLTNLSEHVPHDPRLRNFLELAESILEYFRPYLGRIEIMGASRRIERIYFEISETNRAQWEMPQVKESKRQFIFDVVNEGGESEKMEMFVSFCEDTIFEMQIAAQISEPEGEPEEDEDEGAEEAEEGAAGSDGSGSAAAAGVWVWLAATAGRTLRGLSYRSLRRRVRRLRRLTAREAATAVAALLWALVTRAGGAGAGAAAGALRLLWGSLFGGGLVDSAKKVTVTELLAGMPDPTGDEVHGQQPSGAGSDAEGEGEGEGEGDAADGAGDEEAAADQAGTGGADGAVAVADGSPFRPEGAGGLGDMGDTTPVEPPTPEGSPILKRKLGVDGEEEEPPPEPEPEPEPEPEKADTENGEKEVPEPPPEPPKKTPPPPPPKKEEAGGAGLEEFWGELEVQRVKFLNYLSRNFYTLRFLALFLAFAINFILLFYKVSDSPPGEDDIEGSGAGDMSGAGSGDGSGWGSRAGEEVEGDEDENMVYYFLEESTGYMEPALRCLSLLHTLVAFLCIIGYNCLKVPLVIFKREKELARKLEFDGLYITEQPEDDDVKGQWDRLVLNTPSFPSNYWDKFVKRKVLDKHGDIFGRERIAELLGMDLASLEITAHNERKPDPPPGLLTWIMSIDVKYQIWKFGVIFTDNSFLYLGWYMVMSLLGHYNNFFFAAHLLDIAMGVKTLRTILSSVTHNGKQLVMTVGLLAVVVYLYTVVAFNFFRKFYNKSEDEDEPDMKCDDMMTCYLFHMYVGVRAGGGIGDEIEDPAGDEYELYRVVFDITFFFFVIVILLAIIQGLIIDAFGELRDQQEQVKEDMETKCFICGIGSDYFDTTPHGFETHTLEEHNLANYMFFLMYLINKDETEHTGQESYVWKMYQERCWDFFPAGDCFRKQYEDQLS
T1 sequence (P26883 2-108 partner limits assumed): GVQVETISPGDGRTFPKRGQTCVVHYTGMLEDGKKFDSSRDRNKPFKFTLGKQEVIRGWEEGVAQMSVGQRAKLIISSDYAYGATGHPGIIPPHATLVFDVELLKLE
Protocol: RyR1 channels were reconstituted by spontaneous fusion of microsomes into the planar lipid bilayer (a mixture of phosphatidylethanolamine and phosphatidylserine in a 3:1 ratio, Avanti Polar Lipids). Planar lipid bilayers were formed across a 200 μm aperture in a polysulfonate cup (Warner Instruments, Inc.), which separated two bathing solutions (1 mM EGTA, 250/125 mM HEPES/Tris, 50 mM KCl, 0.5 mM CaCl2, pH 7.35 as cis solution and 53 mM Ba(OH)2, 50 mM KCl, 250 mM HEPES, pH 7.35 as trans solution). After incorporation, RyR1 channel activity was recorded continuously for at least 10 minutes. The concentration of free Ca^2+ in the cis chamber was calculated with WinMaxC program (version 2.50) (Bers, Patton et al. 1994). Single channel currents were recorded at 0 mV using the Axopatch 200A patch-clamp amplifier (Axon Instruments, USA) in gap-free mode, filtered at 1 kHz, and digitized at 10 kHz. Data acquisition was performed using Digidata 1322A and Axoscope 9 software (Axon Instruments, USA). The recordings were analyzed using Clampfit 10.1 (Molecular Devices, USA) and Origin software (ver. 6.0, Microcal Software, Inc., USA).
Chronic exercise results in leaky RyR1 Channels which can be reversed by calstabin1 rebinding: A critical issue is whether the biochemical changes in the RyR1 macromolecular complex identified during exercise result in changes in RyR1 channel activity. […]

SMILES	Heart weight to body weight (HW/BW) ratio (Wild-type mice)	pressure-volume loop quantification (dP/dt) (Wild-type mice)	plasma CPK activity levels [1]	Calpain activity in EDL homogenates (calpain)	learning / persistence in Morris water maze probe (C57BL/6J mice)	duration of the channel dwell times (RyR1)	RyR1 open probability (RyR1; Ex+S107 vs Ex+veh, p<0.005)
COc1ccc2c(c1)CN(C(=O)C(=O)O)CCS2 [S36]	reverse remodeling	improved cardiac contractility					
COc1ccc2c(c1)CN(C)CCS2 [S107]			reduced close to the levels observed in sedentary controls	significantly reduced	trend towards improved learning or increased persistence	Neither chronic exercise nor S107 had any effect	significant decrease
